Reference: US20140315933A1, “CHEMICAL COMPOUNDS” (Pfizer Limited, priority 2013, published 2014)
Where a name gives a salt, the structure may show the parent alone.

biological target: T1, URAT-1 transporter (Homo sapiens, UniProt Q96S37); assay: URAT-1 inhibitor activity: [14C]-uric acid uptake into CHO-URAT1(L)GFP#8 (CHO#8) cells, scintillation proximity; type: cell-based
T1 construct: expressed in transfected cells
Text: The nucleotide sequence for the long isoform of URAT1 (NM_144585) was C-terminally fused to that of enhanced green fluorescent protein (eGFP) (hereinafter referred to as URAT1(L)GFP). The combined sequence was codon-optimised and custom synthesized. The synthesized sequence was generated in pDONR221 Gateway entry vector (Invitrogen Life Technologies) prior to cloning in pLenti6.3/V5 Gateway destination vector (Invitrogen Life Technologies).
Lentiviral particles were generated according to ViraPower HiPerform expression system procedure (Invitrogen Life Technologies) and used to transduce CHO cells. Blasticidin selection enabled the generation of a stable clonal pool of cells, confirmed by expression of GFP and V5 epitope. The clonal pools were sorted using fluorescence-activated cell sorting (FACS) on the basis of GFP expression with the gating set at the top 50% of expression into single cells which were subsequently expanded to generate clonal lines. […] This cell line was used for all screening activities and is referred to as CHO-URAT1(L)GFP#8 or CHO#8.
The potency of the compounds of formula (I) as inhibitors of the URAT-1 transporter was determined as follows.
CHO#8 cells were cultured in cell line maintenance flasks in medium consisting of Dulbecco's modified Eagle medium (DMEM) with high glucose and sodium pyruvate (4.5 g of glucose per litre, Invitrogen Life Technologies), supplemented with heat-inactivated foetal bovine serum (FBC, 10% v/v), 1×NEAA (non-essential amino acids) and blasticidin (10 μg/ml). Cultures were grown in 175 cm^2 tissue culture flasks in a humidified incubator at approximately 37° C. in approximately 95% air/5% CO2. Near confluent CHO#8 cell cultures were harvested by trypsinisation, re-suspended in culture medium and the process was repeated once or twice weekly to provide sufficient cells for use.
Assay ready flasks were generated by the same method, except the cells were not cultured in blasticidin.
Assay ready frozen cells were generated by freezing 40,000,000 cells in 1 ml of FBS (without blasticidin) containing 10% DMSO per vial. One vial was sufficient for 5 assay plates. Each vial was thawed rapidly to 37° C., washed and re-suspended in pre-warmed culture medium for seeding onto assay plates.
CHO#8 cells were seeded onto Cytostar™ 96-well plates at a density of […]. The cells were cultured for 1 day at approximately 37° C. in a humidified incubator containing approximately 5% CO2 in air. After approximately 24 hours culture, cells were used for uptake experiments.
On the day of assay, culture medium was removed from the wells and the cells were washed once with 50 μL of chloride-containing buffer (136.7 mM NaCl, 5.36 mM KCl, 0.952 mM CaCl2, 0.441 mM KH2PO4, 0.812 mM MgSO4, 5.6 mM D-glucose, 0.383 mM Na2HPO4.2H2O, 10 mM HEPES, pH 7.4 with NaOH). The cells were pre-incubated with another 50 μL of chloride-containing buffer for one hour at approximately 37° C. in a humidified incubator containing approximately 5% CO2 in air.
Assay compound plates were prepared by diluting the compounds of formula (I) with chloride-free buffer (125 mM Na-gluconate, 4.8 mM K-gluconate, 1.3 mM Ca-gluconate, 1.2 mM KH2PO4, 1.2 mM MgSO4, 5.6 mM D-glucose, 25 mM HEPES, pH 7.4 with NaOH) in 100% DMSO to a final concentration of 1% DMSO. [^14C]-Uric Uric acid working stock was made by addition of radiolabeled compound to a final concentration of 120 nM in chloride-free buffer. In all wells, the final assay concentration of solvent (DMSO) was 0.25%; the final assay concentration of [^14C]-uric acid was 30 nM in chloride-free buffer and the final compound of formula (I) concentrations ranged from 0 to 10 μM.
After pre-incubation, cells were washed with 50 μL of chloride-free buffer and another 50 μL of chloride-free buffer was added. […]

T1 sequence (Q96S37 with tags, fused parts or gaps): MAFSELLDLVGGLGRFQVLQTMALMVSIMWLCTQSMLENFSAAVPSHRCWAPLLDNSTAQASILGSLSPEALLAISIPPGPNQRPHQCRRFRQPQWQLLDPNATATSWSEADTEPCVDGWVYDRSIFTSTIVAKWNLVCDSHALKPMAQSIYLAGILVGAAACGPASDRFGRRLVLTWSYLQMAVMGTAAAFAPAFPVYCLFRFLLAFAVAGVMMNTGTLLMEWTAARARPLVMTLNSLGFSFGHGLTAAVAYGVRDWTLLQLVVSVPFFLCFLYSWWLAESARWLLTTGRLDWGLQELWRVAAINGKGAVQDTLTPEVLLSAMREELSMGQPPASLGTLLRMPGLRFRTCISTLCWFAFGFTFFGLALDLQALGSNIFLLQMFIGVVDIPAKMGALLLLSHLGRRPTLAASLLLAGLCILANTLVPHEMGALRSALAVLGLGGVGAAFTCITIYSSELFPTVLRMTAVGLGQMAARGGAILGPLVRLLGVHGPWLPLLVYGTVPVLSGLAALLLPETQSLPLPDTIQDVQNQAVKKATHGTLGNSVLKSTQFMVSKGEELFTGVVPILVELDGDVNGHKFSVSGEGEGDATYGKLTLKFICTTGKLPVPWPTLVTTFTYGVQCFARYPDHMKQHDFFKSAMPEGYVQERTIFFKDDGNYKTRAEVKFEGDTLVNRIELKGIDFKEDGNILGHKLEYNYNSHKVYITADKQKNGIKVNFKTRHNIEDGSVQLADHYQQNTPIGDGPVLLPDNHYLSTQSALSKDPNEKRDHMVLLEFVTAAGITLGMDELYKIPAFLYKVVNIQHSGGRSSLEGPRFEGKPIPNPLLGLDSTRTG

SMILES | IC50 [nM]
Cc1ccc(F)c(Oc2ccc(S(=O)(=O)Nc3ncc(F)s3)cc2C#N)c1F [Example 123, 3-cyano-4-(2,6-difluoro-3-methylphenoxy)-N-(5-fluoro-1,3-thiazol-2-yl)benzenesulfonamide] | 1250
N#Cc1cc(Oc2ccc(S(=O)(=O)Nc3nccs3)cc2C#N)ccc1F [Example 246, 3-cyano-4-(3-cyano-4-fluorophenoxy)-N-(1,3-thiazol-2-yl)benzenesulfonamide] | 699
O=S(=O)(Nc1nncs1)c1ccc(Oc2ccc(F)c(F)c2)c(Cl)c1 [compound 204] | 317
Cc1ccnc(C)c1Oc1ccc(S(=O)(=O)Nc2ncns2)cc1C#N [compound 275, trifluoroacetic acid salt] | > 10000
COc1ccc(Oc2ccc(S(=O)(=O)Nc3ncns3)cc2C#N)c(C)c1 [compound 256] | > 4820
N#Cc1cc(S(=O)(=O)Nc2ncc(F)s2)ccc1Oc1cc(F)ccc1F [Example 102, 3-cyano-4-(2,5-difluorophenoxy)-N-(5-fluoro-1,3-thiazol-2-yl)benzenesulfonamide] | 1430
N#Cc1ccc(Oc2ccc(S(=O)(=O)Nc3ncns3)cc2C#N)cc1Cl [compound 218] | > 1660
COc1ccc(Cl)cc1Oc1ccc(S(=O)(=O)Nc2ncns2)cc1C#N [Example 10, 4-(5-chloro-2-methoxyphenoxy)-3-cyano-N-(1,2,4-thiadiazol-5-yl)benzenesulfonamide diethylamine salt] | > 5760
CC(C)c1cccc(Oc2ccc(S(=O)(=O)Nc3nccs3)c(F)c2)c1 [Example 73, 2-fluoro-4-[3-(propan-2-yl)phenoxy]-N-(1,3-thiazol-2-yl)benzenesulfonamide] | > 10000
N#Cc1cc(S(=O)(=O)Nc2cscn2)ccc1Oc1ccc(Cl)cc1OC(F)F [Example 148, 4-[4-chloro-2-(difluoromethoxy)phenoxy]-3-cyano-N-(1,3-thiazol-4-yl)benzenesulfonamide] | 118
CSc1ncccc1Oc1cc(F)c(S(=O)(=O)Nc2nncs2)cc1Cl [compound 310] | 864
O=S(=O)(Nc1ncc(F)s1)c1ccc(Oc2ccc(Cl)cc2OC(F)(F)F)c(F)c1 [Example 60, 4-[4-chloro-2-(trifluoromethoxy)phenoxy]-3-fluoro-N-(5-fluoro-1,3-thiazol-2-yl)benzenesulfonamide] | > 8780
COc1cc(C)ccc1Oc1cc(F)c(S(=O)(=O)Nc2nncs2)cc1Cl [compound 299] | 4370
N#Cc1ccc(Oc2ccc(S(=O)(=O)Nc3nccs3)cc2C#N)cc1Cl [Example 1, 4-(3-chloro-4-cyanophenoxy)-3-cyano-N-(1,3-thiazol-2-yl)benzenesulfonamide] | 58
N#Cc1cc(S(=O)(=O)Nc2ncc(F)s2)ccc1Oc1ccc(CCO)cc1I [Example 145, 3-cyano-N-(5-fluoro-1,3-thiazol-2-yl)-4-[4-(2-hydroxyethyl)-2-iodophenoxy]benzene-sulfonamide] | 803
O=S(=O)(Nc1nccs1)c1ccc(Oc2ccccc2Br)c(F)c1 [Example 75, 4-(2-bromophenoxy)-3-fluoro-N-(1,3-thiazol-2-yl)benzenesulfonamide] | > 10000
COc1cc(C)cc(Oc2ccc(S(=O)(=O)Nc3ncns3)cc2C#N)c1 [compound 292] | 1130
N#Cc1cc(S(=O)(=O)Nc2nccs2)ccc1Oc1ccc(Cl)cc1C(F)(F)F [compound 163] | 681
CCc1cc(F)ccc1Oc1ccc(S(=O)(=O)Nc2cscn2)cc1I [Example 77, 4-(2-ethyl-4-fluorophenoxy)-3-iodo-N-(1,3-thiazol-4-yl)benzenesulfonamide] | 160
O=S(=O)(Nc1cscn1)c1cc(Cl)c(Oc2ccc(Cl)cc2OC(F)F)cc1F [Example 159, 5-chloro-4-[4-chloro-2-(difluoromethoxy)phenoxy]-2-fluoro-N-(1,3-thiazol-4-yl)benzenesulfonamide] | 499

SMILES | IC50 [nM]
N#Cc1ccc(Oc2ccc(S(=O)(=O)Nc3cscn3)c(Cl)c2)cc1Cl [compound 227] | > 10000
N#Cc1cc(S(=O)(=O)Nc2nccs2)ccc1Oc1ccc(Br)cc1F [compound 170] | > 1260
N#Cc1ccc(Oc2ccc(S(=O)(=O)Nc3ncc(F)s3)cc2C#N)cc1Cl [Example 244, 4-(3-chloro-4-cyanophenoxy)-3-cyano-N-(5-fluoro-1,3-thiazol-2-yl)benzenesulfonamide] | 365
COc1cc(Cl)ccc1Oc1ccc(S(=O)(=O)Nc2nncs2)c(Cl)c1 [Example 82, 2-chloro-4-(4-chloro-2-methoxyphenoxy)-N-(1,3,4-thiadiazol-2-yl)benzenesulfonamide diethylamine salt] | 340
N#Cc1cc(Oc2ccc(S(=O)(=O)Nc3cscn3)c(Cl)c2)ccc1F [compound 236] | > 10000
O=S(=O)(Nc1cscn1)c1cc(Br)c(Oc2ccc(F)c(F)c2)cc1F [compound 234] | > 10000
CC(C)c1cccc(Oc2ccc(S(=O)(=O)Nc3ncc(F)s3)cc2F)c1 [Example 69, 3-fluoro-N-(5-fluoro-1,3-thiazol-2-yl)-4-[3-(propan-2-yl)phenoxy]benzenesulfonamide] | > 6340
N#Cc1ccc(Oc2cc(F)c(S(=O)(=O)Nc3cscn3)cc2F)cc1Cl [compound 231] | > 10000
Cc1c(Oc2cc(F)c(S(=O)(=O)Nc3nncs3)cc2Cl)ccc(F)c1F [compound 318, 5-chloro-4-(3,4-difluoro-2-methylphenoxy)-2-fluoro-N-(1,3,4-thiadiazol-2-yl)benzenesulfonamide] | 145
CC(C)Oc1ccccc1Oc1cc(F)c(S(=O)(=O)Nc2nncs2)cc1Cl [compound 325] | 2000
Cc1cc(NS(=O)(=O)c2ccc(Oc3ccc(C#N)c(Cl)c3)c(C#N)c2)no1 [Example 5, 4-(3-chloro-4-cyanophenoxy)-3-cyano-N-(5-methyl-1,2-oxazol-3-yl)benzenesulfonamide diethylamine salt] | > 10000
CC(C)(O)c1cccc(Oc2ccc(S(=O)(=O)Nc3ncc(F)s3)cc2C#N)c1 [Example 135, 3-cyano-N-(5-fluoro-1,3-thiazol-2-yl)-4-[3-(2-hydroxypropan-2-yl)phenoxy]benzenesulfonamide] | 1730
N#Cc1cc(S(=O)(=O)Nc2ncc(Cl)s2)ccc1Oc1ccccc1Cl [Example 85, 4-(2-chlorophenoxy)-N-(5-chloro-1,3-thiazol-2-yl)-3-cyanobenzenesulfonamide] | 845
O=S(=O)(Nc1cscn1)c1ccc(Oc2ccc(F)c(F)c2)c(I)c1 [compound 241] | > 10000
CCc1cc(F)ccc1Oc1ccc(S(=O)(=O)Nc2nccs2)cc1C#N [compound 179] | 121
COc1ccc(F)c(Oc2ccc(S(=O)(=O)Nc3ncns3)cc2C#N)c1F [compound 282] | 1660
COc1ccc(OC(F)(F)F)cc1Oc1ccc(S(=O)(=O)Nc2ncns2)cc1C#N [Example 28, 3-cyano-4-[2-methoxy-5-(trifluoromethoxy)phenoxy]-N-(1,2,4-thiadiazol-5-yl)benzenesulfonamide diethylamine salt] | > 7450
CCOc1ncccc1Oc1ccc(S(=O)(=O)Nc2ncns2)cc1C#N [Example 17, 3-cyano-4-[(2-ethoxypyridin-3-yl)oxy]-N-(1,2,4-thiadiazol-5-yl)benzenesulfonamide diethylamine salt] | 161
Cc1ccc(Oc2ccc(S(=O)(=O)Nc3ncc(F)s3)cc2C#N)c(F)c1F [Example 120, 3-cyano-4-(2,3-difluoro-4-methylphenoxy)-N-(5-fluoro-1,3-thiazol-2-yl)benzenesulfonamide] | 1320
N#Cc1ccc(Oc2ccc(S(=O)(=O)Nc3ncns3)cc2Cl)cc1Cl [compound 210] | 1610
